In patent US20230219952A1, “PROCESS FOR PREPARING METHYL {4,6-DIAMINO-2-[5-FLUORO-1-(2-FLUOROBENZYL)-1H-PYRAZOLO[3,4-B]PYRIDIN-3 -YL]PYRIMIDIN-5-YL} CARBAMATE” (ADVERIO PHARMA GMBH, priority 2020, published 2023):
Where two headings read alike, the source gives them in different places.

How the values were obtained:
Assay type in all cases: physicochemical
[1] = Isolation in an inverting filter centrifuge, industrial scale (isolability)
Excerpt: In the context of the present invention and as outlined in WO2020/126983, improved isolability of the active compound product, dischargeability of the active compound product after isolation and drying and also conveyability, sieveability and micronizability of the active compound product of the compound of the formula (I) are to be understood as meaning the following, for example: Improved isolability is measurable on an industrial scale for example via a higher area-specific throughput in an inverting filter centrifuge (Example 16). In the context of the present invention the isolation of the active compound product is carried out using for example a filter centrifuge, for example an inverting filter centrifuge. […] This manifests for example in a higher area-specific throughput in the inverting filter centrifuge. On an industrial scale isolation of the material from the process of WO 2013/076168 achieved an average area-specific throughput of 1.6 kg/m^2 h. The average area-specific throughput of the material from the process of the invention was 3.0 kg/m^2 h and thus nearly double the above (Example 16). Higher area-specific throughput in an inverting filter centrifuge. Industrial scale.

[2] = Sieving of active compound product on an industrial sieving machine (sieveability); details: for Sieve throughput of active compound product: industrial scale, Frewitt Oscillowitt MG-800 (2.5 to 4.0 mm) for WO 2013/076168 material, Frewitt Coniwitt TC200 (3 mm) for material of the invention; for Time to sieve 65 kg of active compound product: Frewitt Coniwitt TC200, sieve aperture diameter 3 mm
Description: Improved sieveability is measurable for example via improved feeding into the industrial sieving machine as a result of improved flowability of the active compound product and via fewer sieve blockages, for example via the throughput of active compound product per unit time (Example 17).
In the context of the present invention the sieving of the active compound product is carried out for example using a Frewitt Coniwitt TC200 sieving machine (sieve aperture diameter 3 mm) or a Frewitt Oscillowitt MG-800 sieving machine (sieve aperture diameter 2.5 mm to 4.0 mm).
Improved sieveability: The material from the process of the invention is easy to feed into the sieving machine on account of its good flowability. Sieving results in markedly fewer sieve blockages than for material from the process according to route 1. For example on an industrial scale 65 kg of the material from the process of the invention were sievable in <5 min in a Frewitt Coniwitt TC200 sieving machine (sieve aperture diameter 3 mm). This corresponds to >13 kg/min. For comparison sieving material from route 1 via a Frewitt Oscillowitt MG-800 sieving machine (sieve aperture diameter 2.5 mm to 4.0 mm) only achieved throughputs of <10 kg/h. This corresponds to <0.17 kg/min (Example 17). Observed here is a very large difference of a factor of nearly 100 in the sieve throughput of the active compound product of route 1 compared to the active compound product of the invention. This very large difference in sieve throughput results predominantly from the material characteristics of the active compound product and cannot be explained by the different machine types.
Improved sieve throughput. Industrial scale.

[3] = Dischargeability from the inverting filter centrifuge, industrial scale; details: listed as material from the process of the invention
Excerpt: Improved dischargeability from the isolation apparatus: The process according to the process of the present invention prevents the formation of a felt-like filter cake having high tear strength. Both after isolation in the pressure filter and after isolation in the filter centrifugation the filter cake is soft and moldable. This prevents blockage of the discharge path. For example on an industrial scale a blockage of the discharge path from the inverting filter centrifuge after isolation of the material from the process of WO 2013/076168 was avoidable only by reducing the filter cake thickness to 8 mm to 9 mm. By contrast in the isolation of the material from the process of the invention an average filter cake height of 25 mm was realized without any blocking of the discharge path being observed.

[4] = listed as material from the process of the invention

Row | Average area-specific throughput [1] [kg/m^2h] | Average area-specific throughput ([1]; listed as material from the process of WO 2013/076168) [kg/m^2h] | Sieve throughput ([2]; Frewitt Oscillowitt MG-800, sieve aperture diameter 2.5 mm to 4.0 mm) [kg/h] | Amount of active compound product sieved in 1 h ([2]; Frewitt Oscillowitt MG-800, sieve aperture diameter 2.5 to 4.0 mm, in 1 h) | Sieve throughput of active compound product [2] | Sieve throughput of active compound product ([2]; listed as material from route 1) [kg/min] | Average area-specific throughput [1, 4] [kg/m^2h] | Time to sieve 65 kg of active compound product [2] | Time to sieve 65 kg of active compound product [2, 4] [min] | Sieve throughput of active compound product [2, 4] [kg/min] | Filter cake thickness at which the discharge path does not become blocked [3] [mm] | Structure (SMILES)
1 | 1.6 | 1.6 | < 10 | <10 kg of active compound | i.e. <0.17 kg/min | < 0.17 |  |  |  |  |  | COC(=O)Nc1c(N)nc(-c2nn(Cc3ccccc3F)c3ncc(F)cc23)nc1N [Process of WO 2013/076168, methyl {4,6-diamino-2-[5-fluoro-1-(2-fluorobenzyl)-1H-pyrazolo[3,4-b]pyridin-3-yl]pyrimidin-5-yl}carbamate, reference compound]
2 | 3.0 |  |  |  | i.e. >13 kg/min |  | 3.0 | product in <5 min | < 5 | > 13 | 25 | COC(=O)Nc1c(N)nc(-c2nn(Cc3ccccc3F)c3ncc(F)cc23)nc1N [Process of the invention, methyl {4,6-diamino-2-[5-fluoro-1-(2-fluorobenzyl)-1H-pyrazolo[3,4-b]pyridin-3-yl]pyrimidin-5-yl}carbamate]
